Test results published in patent publication US20220273707A1, “COMPOSITIONS AND METHODS FOR TREATING CANINE PARVOVIRUS INFECTION” (MoxxiTech, LLC, priority 2021, published 2022).

How the values were obtained:
[1] = system: Canine parvovirus type 2 (CPV2); test: Viability assay of canine fibroblast cells infected with CPV2 (trypan blue exclusion); assay type: cell-based; conditions: 72 hours post treatment; for cell viability after infection with CPV: added 1 hour after CPV2 infection
Procedure: (§1) Methods: Canine fibroblast cells were cultured in Dulbecco's modified Eagle's medium (DMEM) supplemented with 5% fetal bovine serum, 2 mM L-glutamine, 0.1 mM MEM non-essential amino acids, 1 mM sodium pyruvate, 0.05 mM 2-mercaptoethanol, 10 mM HEPES, 100 units/mL penicillin, and 100 mcg/mL streptomycin, at 38° C. with 5% CO2. Canine parvovirus type 2 (CPV2) was isolated from a fecal sample collected from a naturally infected dog. The virus was propagated on canine fibroblast cells and a titer of 10^13.37 tissue culture infectious doses (TCID50)/mL was used for viability assays. For viability assays, cells were routinely passaged and seeded in 96 well plates at 5×10^4 cells/mL in 200 μL complete DMEM media and incubated overnight at 38° C. with 5% CO2. The media was then removed and cells were infected with CPV2 for 1 hour at 38° C. with 5% CO2. […] A minimum of 3 independent experiments were performed for each assay.
72 hours post treatment, cells were assayed for viability. […] Data shown are Mean±SEM, pooled from three independent experiments.

Canine fibroblast cells = test: Viability of canine fibroblast cells in the absence of CPV infection (trypan blue exclusion); conditions: 1 μM, 72 hours
Procedure: as §1
Data shown are Mean±SEM, pooled from three independent experiments.

Canine parvovirus (CPV) = test: Treatment of puppies naturally infected with CPV, standard veterinary protocol supplemented with oral ferric citrate solution; assay type: in vivo, dog; conditions: for survival rate: twice daily for up to five days, monitored for 14 days
Procedure: Puppies presenting with symptoms of CPV infection, including vomiting, diarrhea, hematochezia, lethargy, and depression, were tested for CPV infection using IDEXX Laboratories SNAP® Parvo Test per manufacturer's protocols.

| Compound | decrease in survival compared to cells infected with CPV ([1]; 1 μM, CPV-infected cells) [%] | decrease in survival compared to the untreated cells ([1]; 1 μM, CPV-infected cells) [%] | viability of treated versus untreated cells in the absence of CPV infection (Canine fibroblast cells) | cell viability after infection with CPV ([1]; 1 μM) | cell viability after infection with CPV ([1]; 10 μM) | survival rate (Canine parvovirus (CPV); 0.22 mg/kg orally, 1/3) [%] | mortality of the smallest puppies (<5 lbs) (Canine parvovirus (CPV); 0.22 mg/kg, lowest concentration tested) | survival rate (Canine parvovirus (CPV); 1.1 mg/kg orally, 2/5) [%] | survival rate (Canine parvovirus (CPV); 2.2 mg/kg (highest concentration) orally, 5/5) [%] | survival from natural infections with CPV with increasing concentrations (Canine parvovirus (CPV); increasing concentrations of ferric citrate (FIG. 3)) |
| --- | --- | --- | --- | --- | --- | --- | --- | --- | --- | --- |
| CC(=O)N(O)CCCCCNC(=O)CCC(=O)N(O)CCCCCNC(=O)CCC(=O)N(O)CCCCCN [deferoxamine, reference compound] | 23 | 45 | no significant difference | – | – | – | – | – | – | – |
| ferric citrate | – | – | – | significant increase | significant increase | 33.33 | not able to prevent mortality | 40 | 100 | increased survival |
